Experimental data published in PubChem BioAssay (NCI).
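Compound exposure: 48 hours, 5 concentrations, 96-well plates. TGI marks complete inhibition of growth.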

Columns and labels:
Experiment in all cases: inhibition of tumour cell growth, NCI panel, 48 h
BT-549 breast = tested on: BT-549 breast
MDA-MB-435 = tested on: MDA-MB-435
MCF7 breast = tested on: MCF7 breast
A549 NSCLC = tested on: A549 NSCLC
SNB-75 CNS = tested on: SNB-75 CNS
SR leukemia = tested on: SR leukemia
HCT-15 colon = tested on: HCT-15 colon
IGROV1 ovarian = tested on: IGROV1 ovarian
HCC-2998 colon = tested on: HCC-2998 colon
NCI-H226 lung = tested on: NCI-H226 lung
MDA-N = tested on: MDA-N
COLO 205 colon = tested on: COLO 205 colon
EKVX NSCLC = tested on: EKVX NSCLC
MOLT-4 leukemia = tested on: MOLT-4 leukemia
SK-OV-3 ovarian = tested on: SK-OV-3 ovarian
786-0 renal = tested on: 786-0 renal
RXF 393 renal = tested on: RXF 393 renal

Row | SMILES | TGI (BT-549 breast) [µM] | TGI (MDA-MB-435) [µM] | TGI (MCF7 breast) [µM] | TGI (A549 NSCLC) [µM] | TGI (SNB-75 CNS) [µM] | TGI (SR leukemia) [µM] | TGI (HCT-15 colon) [µM] | TGI (IGROV1 ovarian) [µM] | TGI (HCC-2998 colon) [µM] | TGI (NCI-H226 lung) [µM] | TGI (MDA-N) [µM] | TGI (COLO 205 colon) [µM] | TGI (EKVX NSCLC) [µM] | TGI (MOLT-4 leukemia) [µM] | TGI (SK-OV-3 ovarian) [µM] | TGI (786-0 renal) [µM] | TGI (RXF 393 renal) [µM]
1 | COC(=O)[C@H](CCSC)NC(=O)N[C@H](C)c1ccccc1 | > 100 | > 100 | > 100 | > 100 | > 100 | > 100 | > 100 | > 100 | > 100 | > 100 | > 100 | > 100 | > 100 | > 100 | > 100 | > 100 | –
2 | Nc1n[n+](CC(=O)c2ccccc2)c2sc(-c3ccccc3)nn12 | > 100 | > 100 | > 100 | > 100 | > 100 | – | > 100 | > 100 | – | > 100 | > 100 | > 100 | > 100 | > 100 | > 100 | > 100 | > 100
3 | O=C(NC1=C(Cl)C(=O)c2ccccc2C1=O)c1ccc(F)cc1 | 14.7 | 14.2 | 17.1 | > 100 | 22.1 | > 100 | 14.8 | 11.5 | 15.1 | 8.37 | 12.9 | 8.33 | 78.9 | 7.13 | – | > 100 | 5.4
4 | CS(=O)(=O)OCC1CN(S(C)(=O)=O)c2cc(O)ccc21 (centres undefined) | 8.85 | 4.07 | 26.2 | 21.1 | 7.43 | > 100 | 12.2 | 22.4 | 4.47 | 12.3 | 4.52 | 5.95 | 16 | 6.93 | – | 12 | 3.47
5 | O=C(O)C12C3CCC(CC3)C1(C(=O)O)C1CCC2C1 (centres undefined) | > 100 | > 100 | > 100 | > 100 | > 100 | > 100 | > 100 | > 100 | > 100 | > 100 | > 100 | > 100 | – | > 100 | > 100 | > 100 | > 100
6 | CO/C(=N\N=C\c1ccc(OC)c(OC)c1)c1ccncc1 | > 10 | – | > 10 | > 10 | > 10 | > 10 | > 10 | > 10 | > 10 | > 10 | > 10 | > 10 | > 10 | > 10 | > 10 | > 10 | –
7 | Cc1cc(S(=O)(=O)Nc2nc3ccccc3nc2-c2cccc([N+](=O)[O-])c2)c(S)cc1Cl | 72.8 | 41 | 64.5 | 38 | – | 47.4 | > 100 | 30.4 | 39.1 | 44.5 | 46.2 | 31.5 | 54.4 | 73.5 | 34 | 45.6 | 74.4
8 | CCc1nn(CN2CCOCC2)c(=S)n1/N=C/c1ccc(-c2ccc(Cl)cc2)o1 | > 100 | > 100 | > 100 | > 100 | > 100 | > 100 | > 100 | > 100 | – | > 100 | > 100 | – | > 100 | > 100 | – | > 100 | > 100
9 | O=C(c1ccccc1)c1ccc2nc(-c3c(Cl)c(Cl)c(Cl)c(Cl)c3C(=O)N/N=C/c3ccc(Cl)cc3)[nH]c2c1 | > 100 | > 100 | 71.8 | > 100 | > 100 | > 100 | > 100 | > 100 | – | > 100 | > 100 | > 100 | > 100 | > 100 | > 100 | 99.6 | 85.9
10 | COc1cc2c(cc1OC)C1C=NC(C2)c2cc(OC)c(OC)cc21 (centres undefined) | > 100 | > 100 | > 100 | > 100 | > 100 | > 100 | > 100 | > 100 | > 100 | > 100 | > 100 | > 100 | > 100 | > 100 | > 100 | > 100 | –
11 | CC1=NC(=Cc2cccc(Cl)c2)C(=O)N1n1c(-c2ccccc2)nc2ccccc2c1=O | > 100 | > 100 | 55.3 | > 100 | > 100 | 63.5 | > 100 | > 100 | 54.5 | > 100 | > 100 | > 100 | > 100 | 98.3 | > 100 | > 100 | –
12 | CCN1C(=O)c2cc(OC)c(OC)cc2C(=O)C12OC(=O)c1cc3c(cc12)OCO3 (centres undefined) | > 100 | > 100 | > 100 | > 100 | 48.5 | > 100 | > 100 | > 100 | > 100 | > 100 | > 100 | > 100 | > 100 | > 100 | – | 53.7 | 72.9
13 | CCOC(=O)C1=NOC2(C=C(Br)C(=O)C(Br)=C2)C1 | 17.8 | 3.49 | 11.1 | 59 | 33.4 | – | 4.91 | 20.6 | 3.22 | 52.9 | 3.39 | 2.7 | 5.45 | 0.304 | 21.1 | 1.76 | 3.54
14 | COc1cc(C2SCC(=O)N2c2cccc(Cl)c2)cc(OC)c1OC (centres undefined) | > 100 | > 100 | > 100 | > 100 | – | > 100 | > 100 | > 100 | > 100 | > 100 | 43 | > 100 | > 100 | > 100 | > 100 | > 100 | –
